Measured values: ChEMBL document CHEMBL1125092, “Nonneurotoxic tetralin and indan analogues of 3,4-(methylenedioxy)amphetamine (MDA)” (J Med Chem, 1990)
pKd: −log10 of the molar value.

Legend:
[1] = species: Rattus norvegicus; experiment: Bmax for compound was evaluated in rat cortical homogenate; assay type: tissue-based
[2] = biological target: T1, Sodium-dependent serotonin transporter (Rattus norvegicus, UniProt P31652); experiment: Binding affinity was determined towards serotonin uptake site in presence of [3H]paroxetine radioligand in rat brain cortical homogenate; assay type: tissue-based
T1 sequence (P31652 whole entry): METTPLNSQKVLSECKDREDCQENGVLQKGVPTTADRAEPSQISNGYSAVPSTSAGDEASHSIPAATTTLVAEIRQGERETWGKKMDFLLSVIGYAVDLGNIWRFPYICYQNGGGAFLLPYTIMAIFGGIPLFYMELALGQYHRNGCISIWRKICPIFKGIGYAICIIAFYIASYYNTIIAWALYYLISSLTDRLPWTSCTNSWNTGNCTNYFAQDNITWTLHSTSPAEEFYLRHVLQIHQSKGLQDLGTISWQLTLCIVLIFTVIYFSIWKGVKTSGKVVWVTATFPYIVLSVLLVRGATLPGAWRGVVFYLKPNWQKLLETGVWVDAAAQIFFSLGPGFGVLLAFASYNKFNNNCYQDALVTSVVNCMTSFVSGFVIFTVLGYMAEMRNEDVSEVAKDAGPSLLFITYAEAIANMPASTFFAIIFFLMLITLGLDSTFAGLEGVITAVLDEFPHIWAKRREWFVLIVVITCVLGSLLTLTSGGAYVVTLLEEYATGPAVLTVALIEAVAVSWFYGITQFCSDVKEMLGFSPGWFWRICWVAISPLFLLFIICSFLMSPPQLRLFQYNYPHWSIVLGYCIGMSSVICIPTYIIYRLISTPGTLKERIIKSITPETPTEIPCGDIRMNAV

[3] = biological target: T1, Sodium-dependent serotonin transporter; experiment: Binding affinity was determined towards serotonin uptake site in presence of [3H]paroxetine radioligand in rat hippocampal homogenate; assay type: tissue-based, Hippocampus
[4] = species: Rattus norvegicus; experiment: Bmax for compound was evaluated in rat hippocampal homogenate; assay type: tissue-based; conditions: Hippocampus
[5] = tested on: Rattus norvegicus; experiment: Hallucinogenic property was determined in groups of LSD trained rats and percentage of animals disrupted was reported at a dose 0.59(uM/kg), (number of animals = 11); assay type: functional
[6] = tested on: Rattus norvegicus; experiment: Percentage of animals disrupted was determined in groups of LSD trained rats at a dose of 1.17(uM/kg)(no. of animals =16); assay type: functional
[7] = tested on: Rattus norvegicus; experiment: Percentage of animals disrupted was determined in groups of LSD trained rats at a dose of 2.34(uM/kg) (no. of animals = 10); assay type: functional
[8] = tested on: Rattus norvegicus; experiment: Hallucinogenic property was determined in groups of MDMA trained rats and percentage of animals disrupted was reported at a dose 1.17 (umol/kg), (number of animals = 8); assay type: functional
[9] = tested on: Rattus norvegicus; experiment: Percentage of animals disrupted was determined in groups of MDMA trained rats at a dose 4.68 (uM/kg), (no.of animals=8); assay type: functional
[10] = tested on: Rattus norvegicus; experiment: Percentage of animals disrupted was determined in groups of LSD trained rats at a dose of 4.68(uM/kg) (no. of animals = 15); assay type: functional
[11] = tested on: Rattus norvegicus; experiment: Percentage of animals disrupted was determined in groups of LSD trained rats at a dose of 9.36(uM/kg) (no. of animals =6); assay type: functional
[12] = tested on: Rattus norvegicus; experiment: Percentage of animals disrupted was determined in groups of MDMA trained rats at a dose 2.34 (uM/kg), (no.of animals=10); assay type: functional
[13] = tested on: Rattus norvegicus; experiment: Percentage of animals disrupted was determined in groups of MDMA trained rats at a dose 9.36 (uM/kg), (no.of animals=10); assay type: functional
[14] = tested on: Rattus norvegicus; experiment: Monoamine levels in at hippocampus were evaluated after subcutaneous administration of 40 mg/kg for NE; assay type: functional
[15] = tested on: Rattus norvegicus; experiment: Monoamine levels in rat brain were evaluated after subcutaneous administration of 40 mg/kg for 5-HIAA; assay type: functional
[16] = tested on: Rattus norvegicus; experiment: Monoamine levels in rat brain were evaluated after subcutaneous administration of 40 mg/kg for 5-HT; assay type: functional
[17] = tested on: Rattus norvegicus; experiment: Monoamine levels in rat brain were evaluated after subcutaneous administration of 40 mg/kg for DA; assay type: functional
[18] = tested on: Rattus norvegicus; experiment: Monoamine levels in rat brain were evaluated after subcutaneous administration of 40 mg/kg for DOPAC; assay type: functional
[19] = tested on: Rattus norvegicus; experiment: Monoamine levels in rat brain were evaluated after subcutaneous administration of 40 mg/kg for HVA; assay type: functional
[20] = tested on: Rattus norvegicus; experiment: Monoamine levels in rat hippocampus were evaluated after subcutaneous administration of 40 mg/kg for 5-HIAA; assay type: functional
[21] = tested on: Rattus norvegicus; experiment: Monoamine levels in rat hippocampus were evaluated after subcutaneous administration of 40 mg/kg for 5-HT; assay type: functional
[22] = tested on: Rattus norvegicus; experiment: Tested for stimulus generation in rats trained to discriminate LSD from saline at a dose 0.59(uM/kg), (number of animals = 11); assay type: functional
[23] = tested on: Rattus norvegicus; experiment: Tested for stimulus generation in rats trained to discriminate LSD from saline at a dose 1.17 (umol/kg) (number of animals =16); assay type: functional
[24] = tested on: Rattus norvegicus; experiment: Tested for stimulus generation in rats trained to discriminate LSD from saline at a dose 2.34 (umol/kg) (number of animals = 10); assay type: functional
[25] = tested on: Rattus norvegicus; experiment: Tested for stimulus generation in rats trained to discriminate +/-MDMA from saline at 1.17 (umol/kg), (number of animals = 8); assay type: functional
[26] = tested on: Rattus norvegicus; experiment: Tested for stimulus generation in rats trained to discriminate +/-MDMA from saline at 4.68 (umol/kg), (number of animals = 8); assay type: functional
[27] = tested on: Rattus norvegicus; experiment: Tested for stimulus generation in rats trained to discriminate +/-MDMA from saline at 9.36 (umol/kg), (number of animals = 10); assay type: functional
[28] = tested on: Rattus norvegicus; experiment: Tested for stimulus generation in rats trained to discriminate LSD from saline at a dose 4.68 (umol/kg),(number of animals = 15); assay type: functional
[29] = tested on: Rattus norvegicus; experiment: Tested for stimulus generation in rats trained to discriminate +/-MDMA from saline at 2.34 (umol/kg), (number of animals = 10); assay type: functional
[30] = tested on: Rattus norvegicus; experiment: Monoamine levels in rat brain were evaluated after subcutaneous administration of 40 mg/kg for NE; assay type: functional

NC1Cc2cc3c(cc2C1)OCO3
Bmax [1]: 918 fM/g
pKd [2]: 9.98
pKd [3]: 9.90
Bmax [4]: 675 fM/g
D [5]: 27%
D [6]: 50%
D [7]: 20%
D [8]: 0%
D [9]: 0%
D [10]: 47%
D [11]: 91%
D [12]: 20%
D [13]: 10%
Monoamine level [14]: 459 pg/mg
Monoamine level [15]: 329 pg/mg
Monoamine level [16]: 330 pg/mg
Monoamine level [17]: 130 pg/mg
Monoamine level [18]: 187 pg/mg
Monoamine level [19]: 193 pg/mg
Monoamine level [20]: 473 pg/mg
Monoamine level [21]: 273 pg/mg
SDL [22]: 13%
SDL [23]: 50%
SDL [24]: 38%
SDL [25]: 13%
SDL [26]: 63%
SDL [27]: 100%
SDL [28]: 25%
SDL [29]: 50%
Monoamine level [30]: 395 pg/mg
